The source of these data is patent publication US20170196821A1, “Method of Inhibiting Mucin Secretion” (Reckitt Benckiser LLC, priority 2009, published 2017).

“Also recorded” adds a separate entry of the source.

Data set [1] relates to EpiAirway cultures (normal human bronchial epithelial) cells. Kind of data set: Viability: metabolic activity by Water Soluble Tetrazolium (WST) assay. As to conditions: 1 or 6 hr treatment. It counts as cell-based. The procedure: EpiAirway cultures (normal human bronchial epithelial) cells grown on Millipore Transwells, 1 or 4.2 cm^2 surface area. The cells were purchased from MatTek, and were cultured at air-liquid interface for two (mucus synthesis and secretion) or three (mucociliary transport and mucus rheology) weeks prior to use.
The apical surfaces of the cultures were then washed with PBS and the metabolic activity, an indicator of viability, was measured using the Water Soluble Tetrazolium (WST) assay (Boehringer).
Metabolic activity was assessed using the WST assay, separately added to the apical or basal surfaces of the cultures.

Data set [2] has as its system MUC5AC mucins. The experiment in a line: MUC5AC mucin secretion and production by ELISA in EpiAirway (NHBE) cultures at air/liquid interface. Format: cell-based, human. How it is done: EpiAirway cultures (normal human bronchial epithelial) cells grown on Millipore Transwells, 1 or 4.2 cm^2 surface area. The cells were purchased from MatTek, and were cultured at air-liquid interface for two (mucus synthesis and secretion) or three (mucociliary transport and mucus rheology) weeks prior to use. GUAIFENESIN solutions were prepared by dissolving in PBS (phosphate buffered saline) immediately before treatment of the cells. MUCSAC mucins were quantified by ELISA using 45M1 antibody (Labvision, Fremont, Calif.). Confluent 1 cm^2 NHBE cells grown on an air/liquid interface were washed from the apical surface with 200 μL PBS and incubated with fresh complete growth medium added to the basal chamber. Cultures were incubated 24 hours to collect the apical fluid (pretreatment sample or PT) by adding 100 μL PBS to the apical surface of the cultures. PBS was added to dilute the highly viscous, thin mucus layer on the surface. Because of the small size of the insert, it was not feasible to collect a sufficient amount of mucus for both pharmacology and rheology without the addition of PBS. After collecting 100 μL of the diluted mucus samples (PT), cultures were divided into three groups (6 hr, 24 hr and 48 hr), 16 inserts per group, and treated with varying concentrations of guaifenesin (0, 0.2, 2, 20 μg/mL) for each time group, 4 inserts per each dose. Thus, a total of 48 inserts were used for this study (4 inserts/dose×4 doses/time point×3 time points). The apical fluid was collected at 30 minutes following drug treatment from all the cultures to see whether guaifenesin affects the “secretion” of mucins. The apical mucus sample was collected in two steps—first by adding 100 μL PBS to the apical surface (1st wash) and then by adding 100 μL PBS containing 5 mM dithiothreitol (DTT) (2nd wash). Samples from each wash were assayed for MUC5AC content and the sum of the two values (the 1st and 2nd wash) was expressed as the “released MUC5AC” of the culture. At the three different time points (i.e., 6, 24, and 48 hr), cultures were washed to collect the apical fluid as described above (“released mucin”) and lysed using a lysis buffer (PBS, pH 7.2, […], 2 mM EDTA, 1 mM PSMF and 5 mM DTT) (“cellular mucin”). The amount of mucin in each sample (either secreted, released or cell lysate) was divided by the amount of mucin in the PT sample collected from the same well in order to obtain a “secretory index” to compensate for the variations among the cultures. The treatment protocol is depicted in FIG. 1. For mucin secretion, differences between control and guaifenesin treatment groups were assessed by comparing the means using Student's t-test for unpaired samples and p<0.05 was considered significant. All the values in the figures represent means ±SEM of 4 cultures unless otherwise stated. *p<0.05, **p<0.01

Data set [3] has as its system apical mucus secretions. Kind of data set: Rheologic measurements of apical mucus secretions from EpiAirway cultures. It counts as cell-based, human. The procedure: EpiAirway cultures (normal human bronchial epithelial) cells grown on Millipore Transwells, 1 or 4.2 cm^2 surface area. The cells were purchased from MatTek, and were cultured at air-liquid interface for two (mucus synthesis and secretion) or three (mucociliary transport and mucus rheology) weeks prior to use. Following the analysis of clearance, mucus was harvested from the apical surface of the cultures, without dilution. The rheological properties of apical mucus secretions (20 μL) were measured using an AR1000 controlled stress rheometer (TA Instruments, New Castle, Del.) using a parallel plate geometry. The dynamic linear viscoelastic behavior was determined from the strain response to an oscillating stress and reported as a storage or elastic modulus (G′), and loss or viscous (G″) modulus, as a function of frequency ω such that viscosity, η′=G″/ω. Rheologic data can also be presented using vectorial notation as tangent δ which is the ratio of viscosity to elasticity and G*, the vector sum of viscosity and elasticity (mechanical impedance). When stress in the linear range is used to evaluate the materials, the material properties are independent of stress. In order to conduct a frequency sweep from 0.1 to 1000 rad/s, viscoelasticity was evaluated using a creep test at 0.5 Pa for 2 minutes. The strain response was fitted to a discrete relaxation spectrum, transformed to the retardation spectrum, and then to the storage and loss moduli, as a function of frequency, using methods developed by the PI. The linear viscoelasticity was evaluated at 1 and 100 rad/s and an oscillatory stress sweep and steady shear flow experiments were used to evaluate the behavior in the non-linear ranges. The oscillatory sweep data were analyzed by observing the stress where G′ and G″ crossed. […] All rheologic measurements were made by technicians who were blinded to the treatment group origin. For rheology experiments, data were analyzed using the StatView™ 5 statistics package. Raw data were visually confirmed to be normally distributed about the mean. […]

For data set [4], the system named is EpiAirway cultures (normal human bronchial epithelial) cells. The experiment in a line: Mucociliary clearance: rate of movement of endogenous cell debris on EpiAirway cultures. Format: cell-based. The procedure: EpiAirway cultures (normal human bronchial epithelial) cells grown on Millipore Transwells, 1 or 4.2 cm^2 surface area. The cells were purchased from MatTek, and were cultured at air-liquid interface for two (mucus synthesis and secretion) or three (mucociliary transport and mucus rheology) weeks prior to use. For mucociliary clearance, a stock guaifenesin solution of 2 mg/mL in culture medium was prepared in the morning of each experiment and kept cold until dilution into warmed medium to the target concentrations of 0.2, 2, 20 or 200 μg/mL. The medium in the basolateral compartment of each culture was replaced with the GGE-containing medium, and the cultures were returned to the 37° C., 5% CO2 incubator for as the times indicated. The experiments were repeated three times on independent cultures. Cultures (4.2 cm^2) were exposed to basolateral guaifenesin for 1 or 6 hr. […] The rate of movement of endogenous cell debris was analyzed on the video images using a transparent template overlay on the video images and a stopwatch to measure at least 5 particles on each culture, for a total of between 30 and 45 measurements per condition. For mucociliary clearance, differences between control and guaifenesin treatment groups were assessed by comparing the means using ANOVA, with a Bonferroni post-test to assess differences from the controls tested at the same time after treatment. […]

Where [5] appears, read: 24 hour treatment, 2 μg/mL or 20 μg/mL.

Regarding `COc1ccccc1OCC(O)CO` (centres unmarked) [guaifenesin, 3-(2-methoxyphenoxy)-1,2-propanediol], the “viability of the cells (WST assay)” value in data set [1] is on record as “no adverse effect on the viability”. Also, the “metabolic activity (WST assay)” value in data set [1] (did not reach statistical significance) is given as “trend to increased metabolic activity”. In data set [2] (30 min treatment, 0.2, 2, 20 μg/mL), the “secreted MUC5AC versus control” value is “no significant difference”. In data set [2] (6 hour treatment, 2 μg/ml and 20 μg/ml), the “total amounts of mucins produced” value was “significantly (p<0.01) suppressed; also recorded: suppressed the production of mucins”. The “amounts of mucins released” value in data set [2] (6 hours treatment, NHBE cells) is “did not affect”. Moreover, in data set [2] (setting [5]), the mucin production result is reported as “significantly suppressed; also recorded: suppressed the production of mucins”. The mucin release result in data set [2] (setting [5]) is recorded as “significantly suppressed; also recorded: significant (p<0.05) decrease in mucin release”. Also, the “amount of mucin released” value in data set [2] (48 hours treatment) is reported as “did not seem to be significantly affected”. The production of mucins result in data set [2] (48 hours treatment, 2 μg/mL and 20 μg/mL) is given as “significantly (p<0.01) suppressed; also recorded: suppressed the production of mucins”. The “viscosity, elasticity and complex modulus (G*) of mucus” value in data set [3] (1 rad/s (ciliary frequency), 1 hour, p<0.05) is given as “dose-dependent decrease”; in data set [3] (1 rad/s (ciliary frequency), 6 hours, p<0.01), “dose-dependent decrease”; in data set [3] (100 rad/s (corresponding to cough)), “not significantly”. Also, the “mucociliary clearance (mobility of cellular debris on culture surface)” value in data set [4] (1 hr treatment, only 2 μg/ml statistically significant, little dose-response) is given as “appeared to increase the mobility of the cellular debris”. For the same compound, the “mucociliary clearance (movement of surface material)” value in data set [4] (6 hr treatment, all three concentrations tested, strong trend to a dose response) was “significantly faster than the control”.
